≈ marks a conversion by molar mass, not a printed value. Read-outs that look alike come from different tables or passages of the source.
Tests used:
[1] = system: Mtb H37Rv strain; test: MIC90 determination in GASTE-Fe media (broth microdilution); format: cell-based, Mycobacterium tuberculosis
[2] = physchem; format: physicochemical; conditions: kinetic solubility, pH 7.4, HPLC method
Method: The kinetic solubility assay was performed using a miniaturised shake flask method. 10 mM stock solutions of each of the test compounds were used to prepare calibration standards (10-220μM) in DMSO. The same 10mM stock solutions were accurately dispensed in duplicate into 96-well plates and the DMSO dried down (MiVac GeneVac, 90 min, 37 °C). Thereafter, the samples were reconstituted (200 µM) in phosphate buffered saline (pH 7.4) and shaken (20 hours, 25 °C). The solutions were filtered and analysed by means of HPLC -DAD (Agilent 1200 Rapid Resolution HPLC with a diode array detector). […]

[3] = format: in vitro ADME; conditions: for Metabolic Stability H (% Rem.): human liver microsomes; for Metabolic Stability M (% Rem.): mouse liver microsomes; for Metabolic Stability R (% Rem.): rat liver microsomes
Method: 3.2. Microsomal stability
The metabolic stability assay was performed in duplicate in a 96-well micro titre plate. The test compounds (0.1 μM) were incubated individually in mouse, rat and pooled human liver microsomes ((final protein concentration of 0.4 mg/mL; XenoTech, Lenexa, KS ), suspended in 0.1M phosphate buffer (pH 7.4) at 37 °C for predetermined time points, in the presence and absence of the cofactor NADPH (1 mM). Reactions were quenched by adding ice cold acetonitrile containing internal standard (carbamazepine, 0.0236 µg/mL). T he samples were centrifuged and test compound in the supernatant were analysed by means of LC -MS/MS (Agilent Rapid Resolution HPLC, AB SCIEX 4500 MS ). The relative loss of parent compound over time was monitored and plots (concentration vs. time) were prepared per compound to determine the first order rate constant for compound depletion. This was in turn used to calculate half-life, in vitro intrinsic clearance and in vivo hepatic extraction ratio. Metabolite searches were not conducted during the metabolic stability assay. 5

[4] = in vitro; conditions: Chinese hamster
[5] = Mycobacterium tuberculosis, H37RV, 336 h, read-out: MIC90 GAST-Fe
[6] = Mycobacterium tuberculosis, H37RV, 336 h, Mtb H37Rv, replicating conditions, GASTE-Fe media, read 14 days after incubation, read-out: MIC90 GASTE-Fe
[7] = Mtb H37Rv, replicating conditions, GASTE-Fe media, read 14 days after incubation, read-out: MIC90 GASTE-Fe

Structure (SMILES) | MIC90 [1, 5] [µM] | solubility ([2]; 25 °C, pH 7.4, aqueous buffer) [µM] | solubility [2] [µM] | Metabolic Stability H (% Rem.) [3] | Metabolic Stability M (% Rem.) [3] [% Rem.] | Metabolic Stability R (% Rem.) [3] [% Rem.] | MIC90 [1, 6] [µM] | IC50 [4] [µM] | MIC90 [1, 7] [µM]
Cc1ccc(-n2c(N)nc3ccc(-c4cccc([S+](C)[O-])c4)cc3c2=O)cc1 (centres unmarked) [compound 36] | 3.09 (≈ 1.2 µg/mL) | > 100 | 172 (≈ 67 µg/mL) | 99 % Rem. | 71 | 68 | – | – | –
CN(C)CCNC(=O)c1cccc(-c2ccc3nc(N)n(-c4ccc(C(F)(F)F)cc4)c(=O)c3c2)c1 [compound 13] | – | 168 (≈ 83.2 µg/mL) | – | 82 % Rem. | 56 | 40 | 0.82 (≈ 0.406 µg/mL) | > 50 | –
Nc1nc2ccc(-c3cccc(Cl)c3)cc2c(=O)n1-c1ccc(C(F)(F)F)cc1 [compound 29] | – | < 5 | – | 73/-/- % Rem. | – | – | 0.675 (≈ 0.281 µg/mL) | – | –
Nc1nc2ccc(-c3cccc(C(=O)NCCO)c3)cc2c(=O)n1-c1ccc(C(F)(F)F)cc1 [compound 14] | – | 192 (≈ 89.9 µg/mL) | 193 (≈ 90.4 µg/mL) | 81 % Rem. | 90 | 83 | 1.03 (≈ 0.482 µg/mL) | > 50 | –
C[S+]([O-])c1cccc(-c2ccc3nc(N)n(-c4cccc(C#N)c4)c(=O)c3c2)c1 (centres unmarked) [compound 55] | 43 (≈ 17.2 µg/mL) | – | – | – | – | – | – | – | –
CNc1nc2ccc(-c3cccc(S(C)(=O)=O)c3)cc2c(=O)n1-c1ccc(C(F)(F)F)cc1 [compound 41, 2-(Methylamino)-6-(3-(methylsulfonyl)phenyl)-3-(4-(trifluoromethyl)phenyl)quinazolin-4(3H)-one] | – | < 5 | – | 98 % Rem. | 100 | 100 | > 125 | > 50 | >125
Nc1nc2ccc(-c3cccc(S(=O)(=O)C4CC4)c3)cc2c(=O)n1-c1ccc(C(F)(F)F)cc1 [compound 8] | – | 66 (≈ 32 µg/mL) | – | 85 % Rem. | 97 | 98 | 2.35 (≈ 1.14 µg/mL) | 0.021 | –
CN(C)c1nc2ccc(-c3cccc([S+](C)[O-])c3)cc2c(=O)n1-c1ccc(C(F)(F)F)cc1 (centres unmarked) [compound 42, 2-(Dimethylamino)-6-(3-(methylsulfinyl)phenyl)-3-(4-(trifluoromethyl)phenyl)quinazolin-4(3H)-one] | – | < 5 | – | 82 % Rem. | 80 | 86 | 2.89 (≈ 1.36 µg/mL) | – | –
COc1ccc(-n2c(N)nc3ccc(-c4cccc([S+](C)[O-])c4)cc3c2=O)cc1 (centres unmarked) [compound 53] | 6.75 (≈ 2.74 µg/mL) | > 100 | 128 (≈ 51.9 µg/mL) | 100 % Rem. | 99 | 103 | – | – | –
NC[C@H]1O[C@H](O[C@H]2[C@H](O)[C@@H](O[C@H]3O[C@H](CO)[C@@H](O)[C@H](N)[C@H]3O)[C@H](N)C[C@@H]2N)[C@H](O)[C@@H](O)[C@@H]1O [Kanamycin, reference compound] | – | – | – | – | – | – | – | – | 1.562 (≈ 0.757 µg/mL)
C[S+]([O-])c1cccc(-c2ccc3nc(N)n(-c4ccccc4C(F)(F)F)c(=O)c3c2)c1 (centres unmarked) [compound 48] | > 125 | – | – | – | – | – | – | – | –
C[S+]([O-])c1cccc(-c2ccc3nc(N)n(-c4cccc(C(F)(F)F)c4)c(=O)c3c2)c1 (centres unmarked) [compound 34] | 14.8 (≈ 6.56 µg/mL) | > 100 | 164 (≈ 72.7 µg/mL) | 50 % Rem. | 51 | 58 | – | – | –
COc1cncc(-c2ccc3nc(N)n(-c4ccc(C(F)(F)F)cc4)c(=O)c3c2)c1 [compound 24] | – | 40 (≈ 16.5 µg/mL) | – | 72/-/- % Rem. | – | – | – | > 100 | –
C[S+]([O-])c1cccc(-c2ccc3nc(N)n(-c4ccc(F)cc4)c(=O)c3c2)c1 (centres unmarked) [compound 49] | 4.84 (≈ 1.9 µg/mL) | 37.8 (≈ 14.9 µg/mL) | 38 (≈ 15 µg/mL) | 82 % Rem. | 96 | 93 | – | – | –
C[S+]([O-])c1cccc(-c2ccc3nc(N)n(-c4ccccc4F)c(=O)c3c2)c1 (centres unmarked) [compound 50] | 67 (≈ 26.4 µg/mL) | – | – | – | – | – | – | – | –
